Test results published in patent US6383479B1, “Neutrophil-activating factor” (Novartis AG, priority 1987, dated 2002).
Starred links: 1 amine or outer side, 2 acyl side, 3 side chain; linkers in the order of their positions; H or OH if unused. Positions of bridges follow the written chain, without caps; N, C: chain ends. Non-standard residues stand in square brackets, D forms with d. Residues, ends and D or L forms follow the SMILES beside them. Chains are numbered I, II in the order given. Actinocin(9to1) = Cc1c2oc3c(C)ccc(C(=O)[*:1])c3nc-2c(C(=O)[*:2])c(N)c1=O; NMeV = CN[C@H](C(=O)O)C(C)C; Sar = CNCC(=O)O

How the values were obtained:
human neutrophils [1] = details: Wymann et al., J. Biol. Chem. 262 [1987] 12048; cited from earlier work
human monocytes = experiment: NAF production by stimulated human mononuclear cells/monocytes (read out as elastase release); format: cell-based; details: mononuclear cell fraction; PHA 5 μg/ml or ConA 10 μg/ml
Procedure: […] At various time intervals the media are collected, cleared by centrifugation (20000 rpm for 20 min. at 4° C.) and NAF activity is measured. Cells from a single donor; means of duplicate cultures.
Human monocytes are isolated from buffy coats of donor blood (Swiss Red Cross Laboratory, Bern, Switzerland) by centrifugation through a Ficoll-Paque gradient. This method separates neutrophils from the so-called mononuclear cells, a mixture of monocytes (about 20%) and lymphocytes (about 80%). Three monocyte preparations are used: (i) the total mononuclear cell fraction, (ii) monocytes enriched from the mononuclear cell fraction by adherence, and (iii) 90% pure monocytes separated from the lymphocytes by centrifugal elutriation (G. Garotta et al., Biochem. Biophys. Res. Comm. 140 [1986] 948-954 and K. J. Clemetson et al., J. Exp. Med. 161 [1985] 972-983). […] At different times, aliquots of the culture media are sampled and NAF activity is determined as the capacity to induce the release of elastase from human neutrophils pretreated with cytochalasin B (B. Dewald et al., Biochem. Pharmacol. 36 [1987] 2505-2510).
Mononuclear cell cultures (5×10^6 cells/ml) consisting of monocytes and lymphocytes in a ratio of approximately 1:5 produce NAF when stimulated with LPS (100 ng/ml). NAF accumulates in the medium over 24 h and the production levels off between 24 h and 48 h. […]

human neutrophils [2] = experiment: superoxide formation (SOD-sensitive cytochrome c reduction) by human neutrophils; format: cell-based; details: 1 μm PAF for 2 minutes
Procedure: a) Superoxide production: neutrophils (3×10^6 /ml) are preincubated at 37° with or without 1 μm PAF for 2 minutes and then stimulated with increasing amounts of NAF. Recordings of cytochrome c reduction following NAF addition are shown.
Superoxide formation is measured at 37° as the SOD sensitive reduction of ferricytochrome c (M. Markert et al., Methods Enzymol. 132 [1984] 267). The assay mixture (800 μl) consists of 0.75×10^6 cells/ml PBS-BSA containing 85 μM cytochrome c. Absorbance changes are recorded in a Hewlett-Packard 8451A diode array spectrophotometer equipped with a thermostated seven-place cuvette exchanger. Table 4 documents the capacity of NAF to elicit the respiratory burst in human neutrophils: […]

[3] = test system: New Zealand albino rabbits; experiment: neutrophil accumulation and plasma leakage in rabbit skin after intradermal injection; format: in vivo; details: 2 h; for effect on neutrophil accumulation induced by NAF: NAF 10^−9 moles; for effect on neutrophil accumulation induced by fMLP: fMLP 10^−9 moles
Source text: Inflammatory responses are examined in the skin of conscious 2.0 to 2.5 kg New Zealand albino rabbits. Erythrocytes in blood from donor rabbits are sedimented with hydroxyethyl cellulose (Polysciences, Warrington, Pa.) and neutrophils in the resultant leucocyte-rich plasma are purified (>94% neutrophils) by density gradient centrifugation on Percoll (Pharmacia, Uppsala, Sweden). Cells are resuspended in Ca^2+ and Mg^2+—free Tyrode's solution containing 10% platelet poor plasma to a concentration of 10^6 leukocytes/ml and labeled for 15 min at room temperature with 40 μCi ^111indium-oxine (Amersham) per 10^6 cells. The labeled cells are washed by centrifugation through 10% platelet-poor plasma and approximately 10^6 cells per recipient are mixed with 10 μCi ^125iodine-labeled human serum albumin (Amersham) and injected intravenously through the lateral ear vein of rabbits with inflammatory lesions under study. Intradermal injections of inflammatory agents are then made and animals are killed 2 h later in studies with actinomycin D and polymyxin B, and 4 h later in dose-response experiments. Midway through the period that radiolabeled cells are in circulation, a blood sample is collected and the specific activities of neutrophils and plasma in blood are determined. Radioactivity in inflammatory lesions at the end of each experiment are determined in a multichannel gamma counter, the activity in control skin sites is subtracted and the absolute number of neutrophils and volume of plasma accumulating in inflammatory lesions are calculated from the specific activities. Neutrophil numbers in inflammatory lesions are standardised between animals by expressing the results as cell number per 10^6 neutrophils circulating per ml peripheral blood, according to the method of Cybulsky et al., Am. J. Pathol. 124 [1986] 367.
Recombinant NAF obtained as described under Example 19 is dissolved at 400 μg/ml in minimal essential medium (50 mM) plus 0.45 M NaCl (pH 6.5). Endotoxin (E. coli serotype 055:B5, Sigma, St. Louis, Mo.) is dissolved in pyrogen-free normal saline. fMLP is dissolved in dimethyl sulphoxide at 10^−2 M and diluted to working concentrations in PFS. Polymyxin B and actinomycin D are dissolved in 1 ml ethanol and diluted 20 fold by mixing with NAF, endotoxin or fMLP in PFS. In studies on inhibition of inflammatory responses 40 μg polymyxin B and 10^−7 moles actinomycin D are injected per skin site with […] endotoxin. In all experiments 0.2 ml of inflammatory agents are injected intradermally per site through 26 gauge needles, with 5 replicates of each treatment in each animal.

Rabbit neutrophils = experiment: NAF-induced exocytosis in rabbit neutrophils (N-acetyl-β-glucosaminidase release); format: cell-based; details: stimulus 100.0 nM, 15 min, cytochalasin B pretreated; purified natural NAF
Procedure: Rabbit neutrophils are isolated from peripheral blood (obtained from the ear vein or artery) by dextran sedimentation followed by Hypaque-Ficoll density gradient centrifugation. Purified natural NAF is used.
Exocytosis conditions: 0.6×10^6 cells (in a total volume of 0.15 ml) pretreated with cytochalasin B for 5 min at 37° are stimulated with NAF (0.1-100 nM) or fMLP (100 nM) for 15 min. N-acetyl-β-glucosaminidase, an azurophil granule marker, is determined in the cell-free medium.

human neutrophils [4] = experiment: stimulus-dependent exocytosis of granule contents by human neutrophils; format: cell-based; details: fMLP 0.1 μM
Procedure: Neutrophils (5×10^6/ml) suspended in PBS/BSA are preincubated with or without cytochalasin B (5 μg/ml) at 37° for 5 min.
Granule release is then initiated by adding the stimulus, e.g. NAF or a standard stimulus. The reaction is stopped 15 min later by rapid cooling in ice followed by centrifugation to sediment the cells. Vitamin B12-binding protein, β-glucuronidase and lactate dehydrogenase are determined in the cell-free media and cell pellets, and the release of these constituents is calculated in percent of the total cellular content (B. Dewalt and M. Baggiolini, Methods Enzymol. 132 [1986] 267).
Natural and recombinant NAF are tested in parallel on human neutrophils. They elicit virtually identical changes in cytosolic free Ca^2+, yielding a maximum rise at a concentration as low as 3 nM (FIG. 15). A nearly identical concentration-dependent respiratory burst response is obtained with both preparations in the range of 1 to 30 nM as assessed by chemiluminescence. The equivalence between natural and recombinant NAF is also reflected by chemotaxis and exocytosis measurements. Chemotactic migration is observed between 0.1 and 10 nM with a maximum effect at 1 nM. (Table 6). With either peptide a significant release of vitamin B12-binding protein from the specific granules at 0.3 nM and of beta-glucuronidase from the azurophil granules at 1 nM is observed.

human neutrophils [5] = experiment: hydrogen peroxide formation by chemiluminescence in human neutrophils; format: cell-based
Procedure: b) H2O2-dependent chemiluminescence: the progress curves following stimulation with partially purified NAF and approximately equiactive concentrations of C5a and fMLP are shown on the left. The initial phase of the response is detailed on the right. The stimulants are added in 50 μl of PBS-BSA.
Lower graphs: respiratory burst induced by natural (left) and recombinant (right) NAF. Neutrophils (10^6 cells/ml) are stimulated with 3, 10 and 30 nM NAF at time zero and hydrogen peroxide production is measured by chemiluminescence (M. P. Wymann et al., Anal. Biochem. 165 [1987] 371-378).
The properties of NAF, fMLP and C5a as stimuli of the respiratory burst are compared by assessing the production of superoxide or hydrogen peroxide by the stimulated cells. Superoxide formation is determined as described in Example 13. Hydrogen peroxide formation is determined by chemiluminescence (M. P. Wymann et al., Anal. Biochem. 165 [1987] 371-378). The assay mixture consisting of PBS-BSA containing 0.1 M sodium azide, 0.01 mM luminol, 9 U/ml horseradish peroxidase and 10^6 neutrophils is preincubated for 10 min at 37° and the reaction is started by adding the stimulus via a microsyringe.

[6] = exposure to fresh human serum, then activity (superoxide production); format: in vitro ADME; details: 15 minutes with fresh human serum
Procedure: C5A and NAF are incubated for 15 minutes with fresh human serum or with PBS and the activity of the preparations is determined (superoxide production).
Since C5a and NAF have similar effects on neutrophils, further experiments must be performed to discriminate entirely between the two. Samples of NAF and C5a are exposed to fresh human serum.

neutrophils = experiment: sequential/repeated stimulation of neutrophils (desensitization, superoxide formation); format: cell-based, human; details: superoxide formation
Procedure: a) Neutrophils (3×10^6 /ml) are preincubated at 37° C. for 5 min. and then stimulated with different agonists as indicated (arrows).
b) Sequential or repeated stimulation with NAF and C5a. Conditions as in a).
Arrows show addition of agonists as indicated. The concentration of C5a is 0.5 nM in a) and 0.2 nM in b), that of fMLP is 20 nM in both experiments. The agonists are added in 50 μl of PBS-BSA.
On the other hand, when agonists acting on different receptors are used in sequence.(e.g. fMLP followed by C5a) these stimulations yield a normal response. Experiments of this type are therefore used to find out whether NAF acts by its own receptor or via a receptor also used by other agonists.

[7] = with CB (cytochalasin B 5 μg/ml)

## CCCCC/C=C\C[C@@H](O)/C=C/C=C/C=C\[C@@H](O)CCCC(=O)O [leukotriene B4]
Human neutrophils [1]
  time between stimulus addition and onset of H2O2 production, as previously reported: about 2 sec

## phytohemagglutinin [PHA]
Human monocytes
  time at which maximum of NAF production is reached: about 24 h

## concanavalin A [ConA]
Human monocytes
  time at which maximum of NAF production is reached: about 24 h

## 1-0-hexadecyl-2-0-acetyl-sn-glycero-3-phosphocholine [PAF, reference compound]
Human neutrophils [1]
  time between stimulus addition and onset of H2O2 production, as previously reported: about 2 sec
Human neutrophils [2]
  effect of pretreatment of the cells with PAF on the superoxide response to NAF: markedly enhanced

## Cc1c2oc3c(C)ccc(C(=O)N[C@@H]4C(=O)N[C@H](C(C)C)C(=O)N5CCC[C@H]5C(=O)N(C)CC(=O)N(C)[C@@H](C(C)C)C(=O)O[C@@H]4C)c3nc-2c(C(=O)N[C@@H]2C(=O)N[C@H](C(C)C)C(=O)N3CCC[C@H]3C(=O)N(C)CC(=O)N(C)[C@@H](C(C)C)C(=O)O[C@@H]2C)c(N)c1=O [actinomycin D] (I: T[dV]P[Sar][NMeV] / II: T[dV]P[Sar][NMeV]; ester I:1-I:C, II:1-II:C; linker I:N-II:N via Actinocin(9to1))
[3]; actinomycin D 10^−7 moles/site
  effect on neutrophil accumulation induced by NAF: no effect
  effect on neutrophil accumulation induced by fMLP: no effect
[3]; actinomycin D 10^−7 moles/site, endotoxin 10^−13 moles
  inhibition of neutrophil accumulation induced by endotoxin: 90%

## Polymyxin B
[3]; polymyxin B 40 μg/site
  effect on neutrophil accumulation induced by NAF: without effect
  effect on neutrophil accumulation induced by fMLP: without effect
[3]; polymyxin B 40 μg/site, endotoxin 10^−13 moles
  inhibition of the response to endotoxin: 84%

## CSCC[C@H](NC=O)C(=O)N[C@@H](CC(C)C)C(=O)N[C@@H](Cc1ccccc1)C(=O)O [fMLP, N-formyl-L-methionyl-L-leucyl-L-phenylalanine, reference compound]
Rabbit neutrophils
  N-acetyl-β-glucosaminidase: 181 pmol/min
Human neutrophils [1]
  time between stimulus addition and onset of H2O2 production, as previously reported: about 2 sec
Human neutrophils [4]; [7]
  Percent release of Vit. B12-binding protein: 35.6 ± 5.5%
  Percent release of lactate dehydrogenase: 5.3 ± 1.6%
  Percent release of β-glucuronidase: 12.1 ± 4.4%
Human neutrophils [4]; without CB
  Percent release of Vit. B12-binding protein: 14.0 ± 0.9%
  Percent release of lactate dehydrogenase: 5.7 ± 1.1%
  Percent release of β-glucuronidase: 2.3 ± 0.8%
Human neutrophils [5]
  time between stimulus addition and onset of H2O2 production: about 2 sec

B1: C5a: anaphylatoxin (protein, UniProt P01031 678-751, looked up)
C5a anaphylatoxin: TLQKKIEEIAAKYKHSVVKKCCYDGACVNNDETCEQRAARISLGPRCIKAFTECCVVASQLRANISHKDMQLGR
modifications: C5a anaphylatoxin
Human neutrophils [1]
  time between stimulus addition and onset of H2O2 production, as previously reported: about 2 sec
[6]
  effect of serum treatment on activity: completely abolishes
Human neutrophils [5]
  time between stimulus addition and onset of H2O2 production: about 2 sec
neutrophils
  desensitization to a second stimulation with the same agonist: complete desensitization
